Measurements: patent US10934297B2, “5-heteroaryl substituted indazole-3-carboxamides and preparation and use thereof” (Samumed, LLC, priority 2018, dated 2021)
Read-outs that look alike come from different tables or passages of the source.

Experiments:
IL-6 = IL-6 inhibition in LPS-stimulated human peripheral blood mononuclear cells (HTRF); type: cell-based; settings: for EC50: huPBMCs, LPS 50 ng/mL, 22 hours, IL-6 HTRF; for inhibition at 10 µM: read-out: percent inhibition at 10 μM
How it was run: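 Fresh human PBMCs at 1×10e6 cells/mL in RPMI/1% FBS were stimulated with 50 ng/mL E. coli 0111:B4 LPS added 2 h after compound, then incubated 22 h at 37° C. Secreted IL-6 was measured by HTRF (665/620 nm ratio) after 3 h at room temperature. EC50 was taken from activity normalized to DMSO-treated cells.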

GSK3β kinase = GSK3β kinase (Homo sapiens (Human), UniProt P49841); experiment: GSK3β kinase assay (Ser/Thr 09 peptide Z-lyte FRET); type: biochemical; settings: read-out: EC50 (method: IC50)
Chain of GSK3β kinase (P49841 whole entry): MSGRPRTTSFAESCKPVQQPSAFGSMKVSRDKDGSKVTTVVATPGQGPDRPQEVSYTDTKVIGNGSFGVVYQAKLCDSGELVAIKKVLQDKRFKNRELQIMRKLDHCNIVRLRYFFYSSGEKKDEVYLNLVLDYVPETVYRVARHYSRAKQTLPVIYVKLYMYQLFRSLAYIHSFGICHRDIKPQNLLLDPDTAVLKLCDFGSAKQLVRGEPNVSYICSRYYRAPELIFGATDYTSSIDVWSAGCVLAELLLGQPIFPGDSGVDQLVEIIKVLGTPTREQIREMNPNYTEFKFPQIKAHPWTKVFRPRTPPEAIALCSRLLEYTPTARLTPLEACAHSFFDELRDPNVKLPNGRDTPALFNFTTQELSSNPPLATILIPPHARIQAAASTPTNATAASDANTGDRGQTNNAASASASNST
How it was run: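 Non-radioactive Z-lyte FRET read-out, kinase activity expressed as coumarin/fluorescein emission ratio. Compounds incubated with the reaction mixture one hour at room temperature in duplicate, then development buffer added for another hour. IC50 from non-linear regression of dose-response curves.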

[1] = test system: primary human fibroblasts derived from IPF patients (LL29 cells); experiment: Inhibition of the fibrotic process: αSMA staining in TGF-β1 treated LL29 fibroblasts; type: cell-based; settings: LL29 cells, TGF-β1 20 ng/mL, 4 days, % αSMA positive cells
How it was run: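 LL29 fibroblasts from IPF patients, in F12 medium with 1% FBS, treated with TGF-β1 plus compound; TGF-β1 with DMSO as positive control, DMSO alone as negative control. After 4 days' incubation, SYTOX green nucleic acid stain added at 1 μM final, 30 min at room temperature.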

[2] = test system: SW480 colon carcinoma cells; experiment: Cell viability assay (CellTiter-Glo) in SW480 colon carcinoma cells; type: cell-based, human; settings: four days
How it was run: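 SW480 cells stably carrying an Sp5-promoter luciferase reporter were plated at 2,000 cells/well in DMEM with 1% FBS and treated with compound for four days at 37 °C. Viability was read as ATP luminescence with CellTiter-Glo after about 12 min; DMSO-treated wells served as controls.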

[3] = test system: Wnt activity (Sp5-Luc reporter in SW480 cells); experiment: Screening assay for Wnt activity: Sp5-Luc reporter gene assay in SW480 colon carcinoma cells; type: cell-based, human; settings: 36 to 48 hours
How it was run: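 SW480 colon carcinoma cells stably carrying a lentiviral luciferase reporter driven by an Sp5 promoter with eight TCF/LEF sites, plated at 4,000 cells/well in DMEM with 1% FBS. Compound exposure for 36–48 h at 37 °C, then luminescence read. Signals normalized to DMSO; EC50 from four-parameter nonlinear fit.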

DYRK1A kinase = DYRK1A kinase (Homo sapiens (Human), UniProt Q13627); experiment: DYRK1A kinase assay (Ser/Thr 18 peptide Z-lyte FRET); type: biochemical; settings: read-out: EC50 (method: IC50)
How it was run: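 This Z-lyte FRET assay reads the coumarin/fluorescein emission ratio. Compounds were incubated with the reaction mixture for 1 h at room temperature, followed by development reagent for a further 1 h at room temperature, in duplicate.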

| Compound | EC50 (IL-6; Homo sapiens, PBMC) [µM] | IC50 (GSK3β kinase) [µM] | EC50 ([1]; Homo sapiens, Fibroblast, 96 h) [µM] | EC50 ([2]; Homo sapiens, 96 h) [µM] | EC50 ([3]; Homo sapiens) [µM] | IC50 (DYRK1A kinase) [µM] | inhibition at 10 µM (IL-6; Homo sapiens, PBMC) [%] | EC50 (IL-6) [µM] | IC50 (GSK3β kinase; recombinant GSK3β, 46 μM ATP, one hour, column head prints EC50) [µM] | EC50 [1] [µM] | EC50 [2] [µM] | EC50 [3] [µM] | IC50 (DYRK1A kinase; recombinant DYRK1A, 30 μM ATP, one hour, column head prints EC50) [µM] |
| --- | --- | --- | --- | --- | --- | --- | --- | --- | --- | --- | --- | --- | --- |
| Cn1cc(-c2cc3c(C(=O)Nc4ccc(OCCN5CCCC5)cc4)n[nH]c3cc2F)cn1 [Compound 155, 6-Fluoro-5-(1-methyl-1H-pyrazol-4-yl)-N-(4-(2-(pyrrolidin-1-yl)ethoxy)phenyl)-1H-indazole-3-carboxamide] | 2.05 | 0.038 | 0.167 | 0.414 | 0.315 | 0.001 |  |  |  |  |  |  |  |
| O=C(N[C@H]1CC[C@H](CN2CC(F)C2)CC1)c1n[nH]c2ccc(-c3cnn(C4CC4)c3)cc12 [Compound 26, 5-(1-Cyclopropyl-1H-pyrazol-4-yl)-N-((1R,4R)-4-((3-fluoroazetidin-1-yl)methyl)cyclohexyl)-1H-indazole-3-carboxamide] | 1.04 | 0.034 | > 10 | 0.849 | 1.18 | 0.005 |  |  |  |  |  |  |  |
| CCn1cc(-c2ccc3[nH]nc(C(=O)NC4CCC(F)(F)CC4)c3c2)cn1 [Compound 18, N-(4,4-Difluorocyclohexyl)-5-(1-ethyl-1H-pyrazol-4-yl)-1H-indazole-3-carboxamide] | 3.82 | 0.06 | 0.95 | 7.46 | 0.801 | 0.121 |  |  |  |  |  |  |  |
| CN1CCC(Oc2ccc(NC(=O)c3n[nH]c4cc(F)c(-c5cnn(C)c5)cc34)cn2)CC1 [Compound 96, 6-Fluoro-5-(1-methyl-1H-pyrazol-4-yl)-N-(6-((1-methylpiperidin-4-yl)oxy)pyridin-3-yl)-1H-indazole-3-carboxamide] | 1.21 | 0.03 | 0.367 | 0.118 | 0.165 | 0.001 |  |  |  |  |  |  |  |
| CN1CCN(Cc2ccc(NC(=O)c3n[nH]c4cc(F)c(-c5cnn(C)c5)cc34)cc2)CC1 [Compound 78, 6-Fluoro-5-(1-methyl-1H-pyrazol-4-yl)-N-(4-((4-methylpiperazin-1-yl)methyl)phenyl)-1H-indazole-3-carboxamide] | 1.14 | 0.018 | 0.545 | 0.454 | 0.249 | 0.001 |  |  |  |  |  |  |  |
| CC(C)CN1CC[C@@H](NC(=O)c2n[nH]c3ccc(-c4cnn(C)c4)cc23)[C@@H](F)C1 [Compound 31, N-((3S,4R)-3-Fluoro-1-isobutylpiperidin-4-yl)-5-(1-methyl-1H-pyrazol-4-yl)-1H-indazole-3-carboxamide] | 4.26 | 0.055 | 2.46 | > 10 | 0.61 | 0.026 |  |  |  |  |  |  |  |
| O=C(Nc1ccc(N2CCCC2)nc1)c1n[nH]c2cc(F)c(-c3cnn(C4CCNCC4)c3)cc12 [Compound 94, 6-Fluoro-5-(1-(piperidin-4-yl)-1H-pyrazol-4-yl)-N-(6-(pyrrolidin-1-yl)pyridin-3-yl)-1H-indazole-3-carboxamide] | > 10 | 0.272 | 1.39 | 0.732 | 0.798 | 0.004 | 5 |  |  |  |  |  |  |
| Cn1cc(-c2ccc3[nH]nc(C(=O)NCC4CCC(F)(F)CC4)c3c2)cn1 [Compound 8, N-((4,4-Difluorocyclohexyl)methyl)-5-(1-methyl-1H-pyrazol-4-yl)-1H-indazole-3-carboxamide] | 3.36 | 0.022 | 0.146 | 0.511 | 0.565 | 0.031 |  |  |  |  |  |  |  |
| Cn1cc(-c2cc(Cl)c3[nH]nc(C(=O)NC4CCN(CC(C)(C)F)CC4)c3c2)cn1 [Compound 38, 7-Chloro-N-(1-(2-fluoro-2-methylpropyl)piperidin-4-yl)-5-(1-methyl-1H-pyrazol-4-yl)-1H-indazole-3-carboxamide] | > 10 | > 10 | > 10 | > 10 | > 10 | > 10 | 8.8 |  |  |  |  |  |  |
| Cn1cc(-c2ccc3[nH]nc(C(=O)NC4CCC(F)(F)CC4)c3c2)cn1 [Compound 14, N-(4,4-Difluorocyclohexyl)-5-(1-methyl-1H-pyrazol-4-yl)-1H-indazole-3-carboxamide] | 3.54 | 0.023 | 0.114 | > 10 | 0.903 | 0.018 |  |  |  |  |  |  |  |
| O=C(Nc1ccc(OC(F)F)nc1)c1n[nH]c2ccc(-c3cnn(C4CNC4)c3)cc12 [Compound 86, 5-(1-(Azetidin-3-yl)-1H-pyrazol-4-yl)-N-(6-(difluoromethoxy)pyridin-3-yl)-1H-indazole-3-carboxamide] | > 10 | 0.354 | 1.19 | > 10 | 1.84 | 0.098 | 14.8 |  |  |  |  |  |  |
| CC(C)(F)CN1CCC(NC(=O)c2n[nH]c3ccc(-c4cnn(C5CC5)c4)cc23)CC1 [Compound 40, 5-(1-Cyclopropyl-1H-pyrazol-4-yl)-N-(1-(2-fluoro-2-methylpropyl)piperidin-4-yl)-1H-indazole-3-carboxamide] | 1.93 | 0.687 | 0.068 | 1.08 | 1.72 | 0.045 |  |  |  |  |  |  |  |
| N-(6-(Difluoromethoxy)pyridin-3-yl)-5-(1-(piperidin-4-yl)-1H-pyrazol-4-yl)-1H-indazole-3-carboxamide [Compound 87] |  |  |  |  |  |  |  | 3.85 | 0.182 | 0.672 | 0.554 | 0.216 | 0.008 |
| Cn1cc(-c2cc3c(C(=O)N[C@H]4CC[C@H](CN5CC(F)C5)CC4)n[nH]c3cc2F)cn1 [Compound 24, 6-fluoro-N-((1R,4R)-4-((3-fluoroazetidin-1-yl)methyl)cyclohexyl)-5-(1-methyl-1H-pyrazol-4-yl)-1H-indazole-3-carboxamide] | 0.419 | 0.022 | 0.125 | 0.829 | 1.34 | 0.002 |  |  |  |  |  |  |  |
| O=C(NC1CCC(F)(F)CC1)c1n[nH]c2ccc(-c3cnn(C4CC4)c3)cc12 [Compound 19, 5-(1-Cyclopropyl-1H-pyrazol-4-yl)-N-(4,4-difluorocyclohexyl)-1H-indazole-3-carboxamide] | 3.68 | 0.064 | 1.18 | 3.07 | 1.05 | 0.117 |  |  |  |  |  |  |  |
| CN1CCN(c2ccc(NC(=O)c3n[nH]c4cc(F)c(-c5cnn(C)c5)cc34)cn2)CC1 [Compound 95, 6-Fluoro-5-(1-methyl-1H-pyrazol-4-yl)-N-(6-(4-methylpiperazin-1-yl)pyridin-3-yl)-1H-indazole-3-carboxamide] | 1 | 0.046 | 0.195 | 0.286 | 0.175 | 0.001 |  |  |  |  |  |  |  |
| O=C(Nc1ccc(F)cc1)c1n[nH]c2cc(F)c(-c3cnn(C4CCNCC4)c3)cc12 [Compound 49, 6-Fluoro-N-(4-fluorophenyl)-5-(1-(piperidin-4-yl)-1H-pyrazol-4-yl)-1H-indazole-3-carboxamide] | 3.73 | 0.187 | 1.01 | 0.208 | 0.256 | 0.015 |  |  |  |  |  |  |  |
| CN1CCC(n2cc(-c3cc4c(C(=O)Nc5ccc(F)cc5)n[nH]c4cc3F)cn2)CC1 [Compound 51, 6-Fluoro-N-(4-fluorophenyl)-5-(1-(1-methylpiperidin-4-yl)-1H-pyrazol-4-yl)-1H-indazole-3-carboxamide] | 2.56 | 0.558 | 0.816 | 0.305 | 0.56 | 0.016 |  |  |  |  |  |  |  |
| Cn1cc(-c2ccc3[nH]nc(C(=O)N[C@H]4CC[C@H](CN5CCCC5)CC4)c3c2)cn1 [Compound 28, 5-(1-Methyl-1H-pyrazol-4-yl)-N-((1R,4R)-4-(pyrrolidin-1-ylmethyl)cyclohexyl)-1H-indazole-3-carboxamide] | 0.401 | 0.011 | 0.409 | 0.442 | 0.688 | 0.002 |  |  |  |  |  |  |  |
